Source: patent EP4711356A1, “TETRAHYDROCARBAZOLE DERIVATIVE, PHARMACEUTICAL COMPOSITION, AND USE THEREOF” (Nain Biotech (Hangzhou) Co., Ltd., priority 2023, dated 2024)

Tested on: HeLa cells
Assay: Cell-based pharmacodynamic assay (CellTiter-Glo proliferation inhibition), HeLa
Settings: human cervical cancer HeLa cells; 72 hours incubation; CellTiter-Glo luminescence; read-out: IC50 against HeLa cells
Method: Complete media such as RPMI 1640 (Gibco, A1049101), EMEM (ATCC, 30-2003), DMEM (Gibco, C11995500CP), McCoy's 5A (Gibco, 16600082), and F-12K (ATCC, 30-2004) were prepared by supplementing with varying concentrations of FBS (Biological Industries, 04-002-1A) and 1% Penicillin-Streptomycin (Gibco, 15140122) and was thoroughly mixed. Tumor cell lines including HeLa (ATCC, CCL-2; EMEM + 10% FBS), TOV-21G (Cobioer, CBP60292; 1:1 mixture of MCDB 105 and Medium 199 + 15% FBS), OVCAR-3 (ATCC, HTB-161; RPMI 1640 + 20% FBS + 0.01 mg/ml bovine insulin), SK-OV-3 (ATCC, HTB-77; McCoy's 5A + 10% FBS), A2780 (Cobioer, CBP60283; RPMI 1640 + 10% FBS), OC316 (Cobioer, CBP60620; RPMI 1640 + 10% FBS), HuH-7 (Cobioer, CBP60202; DMEM + 10% FBS), SNU-398 (ATCC, CRL-2233; RPMI 1640 + 10% FBS), NCI-H2286 (ATCC, CRL-5938; RPMI 1640 + 5% FBS), NCI-H82 (ATCC, HTB-175; RPMI 1640 + 10% FBS), A549 (ATCC, CCL-185; F-12K + 10% FBS), SK-MEL-3 (ATCC, HTB-69; McCoy's 5A + 15% FBS), PSN-1 (Cobioer, CBP61215; RPMI 1640 + 10% FBS), LoVo (ATCC, CCL-229; F-12K + 10% FBS), DLD-1 (ATCC, CCL-221; RPMI 1640 + 10% FBS), HCT-15 (ATCC, CCL-225; RPMI 1640 + 10% FBS), A498 (ATCC, HTB-44; EMEM + 10% FBS), LNCaP (ATCC, CRL-1740; RPMI 1640 + 10% FBS), SNU-1 (ATCC, CRL-5971; RPMI 1640 + 10% FBS), SCC-9 (Cobioer, CBP60428; DMEM/F12 (1:1) + 10% FBS + 0.5 mM sodium pyruvate + 400 ng/ml hydrocortisone), SU-DHL-5 (ATCC, CRL-2958; RPMI 1640 + 10% FBS), Toledo (ATCC, CRL-2631; RPMI 1640 + 10% FBS), and SJCRH30 (ATCC, CRL-2061; RPMI 1640 + 10% FBS) were thawed. Cells were passaged approximately twice, and those in good growth condition (typically passages 4-6) were selected for experiments. The medium was aspirated, and the cells were washed once with 0.25% trypsin (Invitrogen, 25200-072). The waste liquid was discarded, and 3 mL of fresh trypsin was added to the culture flask for digestion. When the cells began to detach, 9 mL of complete medium was added to neutralize the trypsin digestion, and the mixture was gently mixed. The cell suspension was transferred to a centrifuge tube using a pipette and centrifuged at 1000 rpm for 5 minutes. The supernatant was discarded, and 5 mL of medium was added to the centrifuge tube to gently resuspend the cells evenly. The cell concentration was adjusted to 1×10^4/mL-3×10^4/mL using a cell counter (Beckman Coulter, Vi-cellTM XR). The cell suspension was added to a 96-well plate (Corning, 3903) at 100 µL/well. The plate was labeled with details such as cell name, seeding density, and date, and then placed in a CO2 incubator (Thermo, Thermo 3111) overnight. Test compounds were prepared as 20 mM stock solutions in DMSO (Sigma, D4540-1L) and added to the corresponding cell wells using an HPD300 automated dispenser according to the designed layout. The plates were incubated in a 37°C, 5% CO2 incubator for 72 hours. CellTiter-Glo Buffer was thawed at room temperature. The lyophilized CellTiter-Glo substrate was equilibrated to room temperature. The CellTiter-Glo Buffer was added to the CellTiter-Glo substrate and thoroughly mixed. The cell plates were removed and equilibrated to room temperature, and 50 µL of the mixed CellTiter-Glo reagent was added to each well. The plates were protected from light and shaken for 10 minutes, followed by incubation for 10 minutes. The plates were placed in an Enspire reader (luminescence measurement time: 0.5 s) to record luminescence results. The inhibition rate was calculated using the following formula: Inhibition rate (%) = (1 - (RLU_compound - RLU_blank) / (RLU_DMSO - RLU_blank)) × 100%. Dose-response curves were plotted using XLFit to calculate IC50 values. A four-parameter model was used: [fit = (A + ((B - A) / (1 + ((C/x) ^ D)))]. The test results for HeLa cells are shown in Table 1. Table 1: IC50 values of some test compounds against human cervical cancer HeLa cells

| Compound | IC50 [nM] |
| --- | --- |
| C#Cc1cccc2[nH]c3c(c12)CCCC3=O [Compound B68] | ≤ 200 |
| Cc1noc(-c2cccc3[nH]c4c(c23)CCCC4=O)n1 [Compound B69] | ≤ 200 |
| Cc1nnc(-c2cccc3[nH]c4c(c23)CCCC4=O)o1 [Compound B70] | ≤ 200 |
| Cc1nsc(-c2cccc3[nH]c4c(c23)CCCC4=O)n1 [Compound B71] | ≤ 200 |
| CS(=O)(=O)c1cccc2[nH]c3c(c12)CCCC3=O [Compound B74] | ≤ 200 |
| NS(=O)(=O)c1cccc2[nH]c3c(c12)CCCC3=O [Compound B75] | ≤ 500 |
| CN(C)S(=O)(=O)c1cccc2[nH]c3c(c12)CCCC3=O [Compound B76] | ≤ 200 |
| CS(C)(=O)=Nc1cccc2[nH]c3c(c12)CCCC3=O [Compound B80] | ≤ 500 |
| CC(=O)c1cccc2[nH]c3c(c12)CCCC3=O [Compound B82] | ≤ 200 |
| COC(=O)c1cc(F)cc2[nH]c3c(c12)CCCC3=O [Compound B83] | ≤ 200 |
| COC(=O)c1c(F)ccc2[nH]c3c(c12)CCCC3=O [Compound B85] | ≤ 200 |
| COC(=O)c1c(C)ccc2[nH]c3c(c12)CCCC3=O [Compound B87] | ≤ 200 |
| COC(=O)c1c(Cl)ccc2[nH]c3c(c12)CCCC3=O [Compound B89] | ≤ 200 |
| COC(=O)c1c(OC)ccc2[nH]c3c(c12)CCCC3=O [Compound B91] | ≤ 200 |
| COc1ccc(Cn2nnc(-c3cccc4[nH]c5c(c34)CCCC5=O)n2)cc1 [Compound B94] | ≤ 500 |
| O=C1CCCc2c1[nH]c1cccc(C(=O)OC3CCC3)c21 [Compound B95] | ≤ 200 |
| O=C1CCCc2c1[nH]c1cccc(-c3ccncc3)c21 [Compound B96] | ≤ 200 |
| Cc1cc(-c2cccc3[nH]c4c(c23)CCCC4=O)ccn1 [Compound B97] | ≤ 500 |
| Cc1nc(-c2cccc3[nH]c4c(c23)CCCC4=O)no1 [Compound B99] | ≤ 200 |
| CC(O)c1cccc2[nH]c3c(c12)CCCC3=O (centres unmarked) [Compound B105] | ≤ 500 |
| CCOC(=O)c1cccc2[nH]c3c(c12)SCCC3=O [Compound B107] | ≤ 200 |

| Compound | IC50 [nM] |
| --- | --- |
| [2H]C([2H])([2H])C([2H])([2H])OC(=O)c1cccc2[nH]c3c(c12)CCCC3=O [Compound B116] | ≤ 200 |
| CCOC(=O)c1c(C)ccc2[nH]c3c(c12)CCCC3=O [Compound B117] | ≤ 200 |
| CCOC(=O)c1c(Cl)ccc2[nH]c3c(c12)CCCC3=O [Compound B118] | ≤ 200 |
| C#Cc1ccc(COC(=O)c2cccc3[nH]c4c(c23)CCCC4=O)s1 [Compound B120] | ≤ 200 |
| C#CC1(C(=O)Oc2cccc3[nH]c4c(c23)CCCC4=O)CC1 [Compound B121] | ≤ 500 |
| CCn1ncc(-c2cccc3[nH]c4c(c23)CCCC4=O)n1 [Compound B123] | ≤ 200 |
| CC(C)n1ncc(-c2cccc3[nH]c4c(c23)CCCC4=O)n1 [Compound B124] | ≤ 200 |
| CCC#Cc1cccc2[nH]c3c(c12)CCCC3=O [Compound B126] | ≤ 200 |
| O=C1CCCc2c1[nH]c1cccc(C(=O)OC3CC(O)C3)c21 (centres unmarked) [Compound B129] | ≤ 200 |
| O=C1CCCc2c1[nH]c1cccc(C(=O)OC3CCC(O)CC3)c21 (centres unmarked) [Compound B130] | ≤ 200 |
| COc1ccc2[nH]c3c(c2c1-c1cnn(C)n1)CCCC3=O [Compound B134] | ≤ 200 |
| O=C1CCCc2c1[nH]c1cccc(C(=O)OC3CC(F)C3)c21 (centres unmarked) [Compound B139] | ≤ 200 |
| CC1(COC(=O)c2cccc3[nH]c4c(c23)CCCC4=O)COC1 [Compound B140] | ≤ 200 |
| CC(O)CCC(C)OC(=O)c1cccc2[nH]c3c(c12)CCCC3=O (centres unmarked) [Compound B141] | ≤ 200 |
| C[C@@H](O)COC(=O)c1cccc2[nH]c3c(c12)CCCC3=O [Compound B147] | ≤ 200 |
| NC(=O)COC(=O)c1cccc2[nH]c3c(c12)CCCC3=O [Compound B148] | ≤ 200 |
| O=C1CCCc2c1[nH]c1cccc(C(=O)OC(CO)CO)c21 [Compound B149] | ≤ 200 |
| C[C@H](O)COC(=O)c1cccc2[nH]c3c(c12)CCCC3=O [Compound B150] | ≤ 200 |
| C#Cc1ccc2[nH]c3c(c2c1C(=O)OCC)CCCC3=O [Compound B153] | ≤ 200 |
| Cn1cc(-c2cccc3[nH]c4c(c23)CCCC4=O)cn1 [Compound B154] | ≤ 200 |
| CCn1cc(-c2cccc3[nH]c4c(c23)CCCC4=O)cn1 [Compound B155] | ≤ 200 |

| Compound | IC50 [nM] |
| --- | --- |
| O=C1CCCc2c1[nH]c1cccc(-c3cnn(C(F)F)c3)c21 [Compound B156] | ≤ 200 |
| O=C1CCCc2c1[nH]c1cccc(C(=O)Oc3cn[nH]c3)c21 [Compound B160] | ≤ 200 |
| Cc1cc(COC(=O)c2cccc3[nH]c4c(c23)CCCC4=O)n[nH]1 [Compound B163] | ≤ 200 |
| Cn1nc2ccccc2c1COC(=O)c1cccc2[nH]c3c(c12)CCCC3=O [Compound B164] | ≤ 200 |
| O=C1CCCc2c1[nH]c1cccc(C(=O)Oc3cccc4[nH]ncc34)c21 [Compound B166] | ≤ 500 |
| C=C=Cn1cc(-c2cccc3[nH]c4c(c23)CCCC4=O)cn1 [Compound B173] | ≤ 200 |
| N#CC1(COC(=O)c2cccc3[nH]c4c(c23)CCCC4=O)CC1 [Compound B175] | ≤ 500 |
| O=C1CCCc2c1[nH]c1cccc(C(=O)OC3CCC(O)C3)c21 (centres unmarked) [Compound B177] | ≤ 200 |
| Cc1nn(C)cc1-c1cccc2[nH]c3c(c12)CCCC3=O [Compound B180] | ≤ 500 |
| O=C1CCCc2c1[nH]c1cccc(-c3cnn(CCO)c3)c21 [Compound B181] | ≤ 200 |
| O=C1CCCc2c1[nH]c1cccc(C(=O)OC3COCC3O)c21 (centres unmarked) [Compound B186] | ≤ 500 |
| O=C1CCCc2c1[nH]c1cccc(C(=O)O[C@@H](CO)c3ccccc3)c21 [Compound B189] | ≤ 500 |
| [2H]C([2H])([2H])n1cc(-c2cccc3[nH]c4c(c23)CCCC4=O)cn1 [Compound B191] | ≤ 200 |
| O=C1CCCc2c1[nH]c1cccc(N3CC[C@@H](CO)C3)c21 [Compound B193] | ≤ 200 |
| O=C1CCCc2c1[nH]c1cccc(N3CCO[C@H](CO)C3)c21 [Compound B194] | ≤ 200 |
| O=C1CCCc2c1[nH]c1cccc(N3CC[C@H](CO)C3)c21 [Compound B196] | ≤ 200 |
| COC(=O)c1cccc2c1c1c(n2C(C)=O)C(=O)CCC1 [Compound C01] | ≤ 200 |
| C=CC(=O)n1c2c(c3c(C(=O)OCC)cccc31)CCCC2=O [Compound C03] | ≤ 200 |
| CCOC(=O)c1cccc2c1c1c(n2C(=O)c2ccccc2)C(=O)CCC1 [Compound C04] | ≤ 200 |
| CCOCC(=O)n1c2c(c3c(C(=O)OCC)cccc31)CCCC2=O [Compound C14] | ≤ 200 |
